Measured values published in PMC3070790 (Bioorganic & medicinal chemistry letters, 2011).
Entries after “also recorded” stand apart in the source; their conditions may differ. Like-named read-outs stand apart in the source and are kept apart here.

What was measured:
[1] = molecular target: T1, light chain of BoNT serotype A (LC/A) (Clostridium botulinum, UniProt P0DPI1); format: biochemical
[2] = system: primary rat cerebellar neurons; format: cell-based
[3] = molecular target: T1, light chain of BoNT serotype A (LC/A); details: cited from earlier work

T1 sequence (P0DPI1 2-448 limits assumed): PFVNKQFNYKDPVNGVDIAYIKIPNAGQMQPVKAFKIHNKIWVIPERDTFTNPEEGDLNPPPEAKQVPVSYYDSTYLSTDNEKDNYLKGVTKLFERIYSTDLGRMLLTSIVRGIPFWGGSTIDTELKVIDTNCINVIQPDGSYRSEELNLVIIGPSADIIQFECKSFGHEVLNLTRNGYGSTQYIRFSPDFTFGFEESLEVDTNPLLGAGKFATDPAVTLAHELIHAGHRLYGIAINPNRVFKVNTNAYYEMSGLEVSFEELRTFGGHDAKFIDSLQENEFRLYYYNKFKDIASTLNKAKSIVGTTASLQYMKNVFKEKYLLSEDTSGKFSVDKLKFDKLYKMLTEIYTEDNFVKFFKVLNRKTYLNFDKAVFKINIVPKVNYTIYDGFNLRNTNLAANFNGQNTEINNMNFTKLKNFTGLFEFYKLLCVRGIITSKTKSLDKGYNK

C=C(C)[C@@H]1CC[C@]2(COC(=O)CCC(=O)O)CC[C@]3(C)[C@H](CC[C@@H]4[C@@]5(C)CC[C@H](O)C(C)(C)[C@@H]5CC[C@]43C)[C@@H]12 [Compound 7, 28-hemisuccinylbetulin]
Ki [1]: sub-micromolar
mechanism of inhibition [1]: competitive
protection against BoNT/A (intracellular SNAP-25 cleavage) [2]: did not show any protection; also recorded: did not show inhibitory activity; also recorded: did not demonstrate protection

C=C(C)[C@@H]1CC[C@]2(COC(=O)COc3cc(C(C)C)ccc3C)CC[C@]3(C)[C@H](CC[C@@H]4[C@@]5(C)CC[C@H](O)C(C)(C)[C@@H]5CC[C@]43C)[C@@H]12 [Compound 8, betulinyl 28-carboxymethoxycarvacrolate]
fold less potent than 7 (Ki) [1]: about 16 fold
mechanism of inhibition [1]: competitive

C=C(C)[C@@H]1CC[C@]2(C(=O)O)CC[C@]3(C)[C@H](CC[C@@H]4[C@@]5(C)CC[C@H](O)C(C)(C)[C@@H]5CC[C@]43C)[C@@H]12 [Compound 18, betulinic acid]
fold less potent than 7 (Ki) [1]: ~18 fold
mechanism of inhibition [1]: competitive

O=C(/C=C/c1ccc(O)c(O)c1)O[C@H](C(=O)O)[C@H](OC(=O)/C=C/c1ccc(O)c(O)c1)C(=O)O [D-chicoric acid]
mechanism of inhibition [3]: noncompetitive partial inhibition
